Data published in patent US20170050939A1, “SMALL MOLECULE INHIBITORS OF G PROTEIN COUPLED RECEPTOR 6 KINASE POLYPEPTIDES” (Mayo Foundation for Medical Education and Research, priority 2014, published 2017).
Where two headings read alike, the source gives them in different places.

Molecular target: T1, GRK6, recombinant full-length GST-tagged human protein (Homo sapiens, UniProt P43250)
T1 construct: GRK6, recombinant full-length GST-tagged human protein; GST
Test: GRK6 IC50 determination (8-point concentration-response)
Assay type: biochemical
Description: Two hundred forty compounds were further characterized by determining IC50 values in a GRK6 assay. This screen has been previously described in WO 2013/063458, which is incorporated by reference in its entirety herein.

[1] = 20 nM GRK6, 12 μM ATP (Km), 1 μM Peptide 216, 7 h incubation

T1 sequence (P43250 whole entry): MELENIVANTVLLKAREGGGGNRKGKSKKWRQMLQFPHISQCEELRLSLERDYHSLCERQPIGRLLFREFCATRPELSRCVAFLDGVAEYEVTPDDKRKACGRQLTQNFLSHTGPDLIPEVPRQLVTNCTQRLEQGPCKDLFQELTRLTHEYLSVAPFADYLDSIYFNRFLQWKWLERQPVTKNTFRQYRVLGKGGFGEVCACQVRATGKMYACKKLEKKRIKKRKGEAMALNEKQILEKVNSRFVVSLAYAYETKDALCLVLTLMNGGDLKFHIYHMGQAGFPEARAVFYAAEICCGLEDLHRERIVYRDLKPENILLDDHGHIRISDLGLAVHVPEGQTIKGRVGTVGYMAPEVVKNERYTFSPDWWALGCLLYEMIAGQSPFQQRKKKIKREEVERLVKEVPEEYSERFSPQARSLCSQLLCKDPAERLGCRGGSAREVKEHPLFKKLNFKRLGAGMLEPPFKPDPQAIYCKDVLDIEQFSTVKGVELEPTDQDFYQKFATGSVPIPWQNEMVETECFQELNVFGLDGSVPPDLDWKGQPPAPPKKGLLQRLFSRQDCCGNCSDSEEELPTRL

IC50 [1] [µM] | IC50 [µM] | SMILES
8.84 |  | CCSc1ccc(-c2nnc(SCC(=O)O)[nH]2)cc1 [Compound 141]
9.56 |  | COC(=O)c1ccc(-c2nnc(SCC(=O)O)[nH]2)cc1 [Compound 142]
 | 9.82 | O=C(O)CSc1nnc(-c2cccc(C(=O)Nc3cccc4[nH]ccc34)c2)[nH]1 [Compound 143]
9.9 |  | COc1cc(-c2nnc(SCC(=O)O)[nH]2)ccc1OC(C)=O [Compound 144]
10.7 |  | O=C(O)CSc1nnc(-c2cccc(F)c2F)[nH]1 [Compound 145]
 | 11.4 | O=C(O)CSc1nnc(-c2cccc(C(=O)Nc3cccc4[nH]ncc34)c2)[nH]1 [Compound 146]
11.6 |  | O=C(O)CSc1nnc(-c2ccc(O)cc2O)[nH]1 [Compound 147]
 | 11.7 | O=C(O)CSc1nnc(-c2cccc(C(=O)Nc3ccc(Cl)cc3)c2)[nH]1 [Compound 148]
 | 11.8 | O=C(O)CSc1nnc(-c2cccc(C(=O)Nc3ccccc3)c2)[nH]1 [Compound 149]
 | 12.4 | O=C(O)CSc1nnc(-c2cccc(Oc3ccccc3)c2)[nH]1 [Compound 150]
 | 12.9 | COc1cccc(NC(=O)c2cccc(-c3nnc(SCC(=O)O)[nH]3)c2)c1 [Compound 151]
13.3 |  | COc1ccc(-c2nnc(SCC(=O)O)[nH]2)cc1O [Compound 152]
 | 13.4 | O=C(O)CSc1nnc(-c2cccc3cc[nH]c23)[nH]1 [Compound 153]
 | 13.4 | O=C(O)CSc1nnc(-c2ccc3c(c2)OCCO3)[nH]1 [Compound 154]
 | 14.4 | Cc1cccc(-c2nnc(SCC(=O)O)[nH]2)c1 [Compound 156]
15.4 |  | O=C(O)CSc1nnc(-c2ccc(N3CCCC3=O)cc2)[nH]1 [Compound 157]
15.9 |  | COc1cc(-c2nnc(SCC(=O)O)[nH]2)cc([N+](=O)[O-])c1O [Compound 158]
16.2 |  | O=C(O)CSc1nnc(-c2cccc(Cn3cccn3)c2)[nH]1 [Compound 159]
 | 17.3 | O=C(O)CSc1nnc(-c2cccc(C(=O)Nc3ccc4c(c3)NC(=O)CC4)c2)[nH]1 [Compound 160]
 | 17.5 | O=C(O)CSc1nnc(-c2cccc(C(=O)Nc3ccc4ncccc4c3)c2)[nH]1 [Compound 161]
17.5 |  | C[S+]([O-])c1cccc(-c2nnc(SCC(=O)O)[nH]2)c1 (centres unmarked) [Compound 162]
18.3 |  | COc1ccc(F)c(-c2nnc(SCC(=O)O)[nH]2)c1 [Compound 163]
 | 18.5 | O=C(O)CSc1nnc(-c2cccc3c2OCO3)[nH]1 [Compound 164]

IC50 [1] [µM] | IC50 [µM] | SMILES
18.9 |  | CNS(=O)(=O)c1cccc(-c2nnc(SCC(=O)O)[nH]2)c1 [Compound 165]
 | 20.2 | CN1CCOc2cc(-c3nnc(SCC(=O)O)[nH]3)ccc21 [Compound 166]
 | 20.4 | CNC(=O)c1cccc(NC(=O)c2cccc(-c3nnc(SCC(=O)O)[nH]3)c2)c1 [Compound 167]
20.7 |  | COc1cc(-c2nnc(SCC(=O)O)[nH]2)cc(O)c1OC [Compound 168]
20.9 |  | COc1ccc(-c2nnc(SCC(=O)O)[nH]2)c(O)c1 [Compound 169]
 | 21.3 | COc1ccc(NC(=O)c2cccc(-c3nnc(SCC(=O)O)[nH]3)c2)cc1 [Compound 170]
21.9 |  | O=C(O)CSc1nnc(-c2cccc(N3CCNCC3)c2)[nH]1 [Compound 171]
23.7 |  | COc1cc(F)c(-c2nnc(SCC(=O)O)[nH]2)cc1OC [Compound 172]
25.8 |  | CCN(CC)c1ccc(-c2nnc(SCC(=O)O)[nH]2)c(O)c1 [Compound 173]
 | 28.1 | O=C(O)CSc1nnc(-c2cccc3ccccc23)[nH]1 [Compound 174]
 | 29.6 | O=C(O)CSc1nnc(-c2cccc3cnccc23)[nH]1 [Compound 175]
 | 33.3 | O=C(O)CSc1nnc(-c2cccc(C(=O)NCc3ccccc3)c2)[nH]1 [Compound 176]
 | 34 | O=C(O)CSc1nnc(-c2cccc(C(=O)Nc3cccnc3)c2)[nH]1 [Compound 177]
35.3 |  | CN(CCC#N)c1ccc(-c2nnc(SCC(=O)O)[nH]2)cc1 [Compound 179]
35.7 |  | O=C(O)CSc1nnc(-c2ccc(N3CCCCC3)cc2F)[nH]1 [Compound 180]
38.5 |  | COc1cc(F)c(-c2nnc(SCC(=O)O)[nH]2)c(F)c1 [Compound 181]
40 |  | O=C(O)CSc1nnc(-c2ccc(OC3CCNCC3)cc2)[nH]1 [Compound 182]
40 |  | CN(C)c1ccc(-c2nnc(SCC(=O)O)[nH]2)c([N+](=O)[O-])c1 [Compound 183]
40 |  | CN(C)Cc1ccc(-c2nnc(SCC(=O)O)[nH]2)cc1 [Compound 184]
45.3 |  | Cc1cc(C=O)c(O)c(-c2nnc(SCC(=O)O)[nH]2)c1 [Compound 185]
 | 47.8 | O=C(O)CSc1nnc(-c2cccc(C(=O)Nc3ccccc3Cl)c2)[nH]1 [Compound 186]
51.8 |  | O=C(O)CSc1nnc(-c2cccc(N3CCCCC3)c2)[nH]1 [Compound 187]
74.1 |  | CSc1ccccc1-c1nnc(SCC(=O)O)[nH]1 [Compound 188]

IC50 [1] [µM] | IC50 [µM] | SMILES
 | 80.6 | CC(C)Oc1ccc(-c2nnc(SCC(=O)O)[nH]2)cc1N [Compound 190]
81.7 |  | O=C(O)CSc1nnc(-c2cc(C(=O)O)ccc2F)[nH]1 [Compound 191]
87 |  | COc1ccc(Br)cc1-c1nnc(SCC(=O)O)[nH]1 [Compound 192]
 | > 200 | CC(C)Oc1ccc(-c2nnc(SCC(=O)O)n2CC(=O)O)cc1[N+](=O)[O-] [Compound 193]
 | > 100 | O=C(O)CSc1nnc(-c2cccc3c2OCCCO3)[nH]1 [Compound 197]
 | > 100 | O=C(O)CS(=O)(=O)c1nnc(-c2ccccc2)[nH]1 [Compound 210]
 | > 58 | O=C(O)CSc1nnc(-c2cc3c(cc2[N+](=O)[O-])OCO3)[nH]1 [Compound 212]
 | > 80 | O=C(O)CSc1nnc(-c2c(O)ccc3ccccc23)[nH]1 [Compound 224]
 | 0.06 | Cn1cc(Cl)c2cc(-c3cc(-c4n[nH]c(SCC(=O)O)n4)cc([N+](=O)[O-])c3)ccc21 [Compound 227]
 | 0.101 | NC(=O)c1cc2cc(-c3cc(-c4n[nH]c(SCC(=O)O)n4)cc([N+](=O)[O-])c3)ccc2[nH]1 [Compound 228]
 | 0.114 | Cn1ccc2cc(-c3cc(-c4n[nH]c(SCC(=O)O)n4)cc([N+](=O)[O-])c3)cc(Cl)c21 [Compound 229]
 | 0.15 | Cc1cn(C)c2ccc(-c3cc(-c4nnc(SCC(=O)O)[nH]4)cc([N+](=O)[O-])c3)cc12 [Compound 230]
 | 0.15 | Cc1cc(-c2cc(-c3nnc(SCC(=O)O)[nH]3)cc([N+](=O)[O-])c2)cc2ccn(C)c12 [Compound 231]
 | 0.184 | N#Cc1cc2cc(-c3cc(-c4nnc(SCC(=O)O)[nH]4)cc([N+](=O)[O-])c3)ccc2[nH]1 [Compound 232]
 | 0.209 | O=C(O)CSc1nnc(-c2cc(-c3cc(Cl)c4ccccc4c3)cc([N+](=O)[O-])c2)[nH]1 [Compound 233]
 | 0.267 | Cc1cc2cc(-c3cc(-c4nnc(SCC(=O)O)[nH]4)cc([N+](=O)[O-])c3)ccc2n1C [Compound 234]
 | 0.358 | Cc1c(-c2cc(-c3nnc(SCC(=O)O)[nH]3)cc([N+](=O)[O-])c2)ccc2[nH]c(C(N)=O)cc12 [Compound 235]
 | 0.402 | Cc1c(-c2cc(-c3nnc(SCC(=O)O)[nH]3)cc([N+](=O)[O-])c2)ccc2[nH]c(C#N)cc12 [Compound 236]
 | 0.438 | O=C(O)CSc1nnc(-c2cc(-c3cccc4c3oc3ccccc34)cc([N+](=O)[O-])c2)[nH]1 [Compound 237]
 | 0.442 | Cc1ccc2cc(-c3cc(-c4nnc(SCC(=O)O)[nH]4)cc([N+](=O)[O-])c3)ccc2c1 [Compound 238]
 | 0.729 | Cn1ccc2cc(-c3cc(-c4nnc(SCC(=O)O)[nH]4)cc(C(F)(F)F)c3)ccc21 [Compound 239]
 | 0.93 | O=C(O)CSc1nnc(-c2cc(-c3ccc4c(c3)[nH]c3ccccc34)cc([N+](=O)[O-])c2)[nH]1 [Compound 240]
